Source: PubChem BioAssay AID686963 (Sanford-Burnham Center for Chemical Genomics, 2013)
Calls of active or inactive are those of the source.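 How the source made its calls: active means compounds blocking the small tyrosine phosphatase LMPTP with an IC50 of 20 micromolar or lower; inactive means the rest.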

Molecular target: Low molecular weight phosphotyrosine protein phosphatase (Homo sapiens) (UniProt P24666)
Assay: inhibition of human LMPTP, pNPP readout – biochemical, absorbance, orthogonal assay, SAR follow-up (AID 686963)
Conditions: recombinant LMPTP-A, 50 min

Chain of Low molecular weight phosphotyrosine protein phosphatase (Homo sapiens) (P24666 whole entry, looked up): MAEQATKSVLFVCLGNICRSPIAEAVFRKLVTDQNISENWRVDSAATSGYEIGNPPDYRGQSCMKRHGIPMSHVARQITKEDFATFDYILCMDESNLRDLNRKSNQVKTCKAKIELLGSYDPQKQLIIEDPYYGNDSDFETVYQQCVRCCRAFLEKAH

IC50	SMILES
13.5 µM	Nc1nc(N)c(Cc2ccc(Cl)cc2Cl)c(N)n1
> 80 µM (inactive)	COc1ccccc1CNc1ncnc2ccsc12
inactive	O=C(OCCNc1nc(-c2ccccc2)nc2ccccc12)c1ccncc1
inactive	Fc1ccccc1-c1nc(NCCCN2CCOCC2)c2ccccc2n1
inactive	CC(C)OCCCNc1nc(-c2ccccc2)nc2ccccc12
inactive	Cc1cccc(-c2nc(NCCCN3CCOCC3)c3ccccc3n2)c1
11.6 µM	Clc1cccc(Cl)c1Cn1cnc(=NCc2ccco2)c2[nH]cnc21
17.5 µM	Cc1c(CCC(=O)O)c(=O)oc2c(C)c(OCc3ccccc3Cl)ccc12
inactive	c1ccc(-c2nc(NCc3cccnc3)c3ccccc3n2)cc1
inactive	CCc1nc(N)nc(N)c1-c1ccc(Cl)cc1
inactive	c1ccc(-c2nc(NCCCn3ccnc3)c3ccccc3n2)cc1
inactive	Cc1ccc(-c2nc(NCc3cccnc3)c3ccccc3n2)cc1
4.97 µM	c1ccc(-c2cc(NCCN3CCCCC3)c3ccccc3n2)cc1
inactive	O=C(OCCNc1nc(-c2ccccc2)nc2ccccc12)c1cccnc1
inactive	Fc1ccccc1-c1nc(NC2CCCC2)c2ccccc2n1
inactive	c1ccc(-c2cc(N3CCCCC3)c3ccccc3n2)cc1
inactive	Cc1ccc(-c2nc(NCCN3CCOCC3)c3ccccc3n2)cc1
